Reference: US11844794B2, “Pharmaceutical compositions” (ADEPTIO PHARMACEUTICALS LIMITED, priority 2017, dated 2023)
Converted amounts (≈) assume the structure as drawn.

Columns and labels:
[1] = tested on: non-amphetamine induced rats; assay: locomotor activity in rats without amphetamine induction, open field test; format: in vivo, rat; details: Study 3, non-induced rats, 2.5 mg/kg or 5 mg/kg
Protocol: All animal experiments were carried out according to the National Institute of Health (NIH) guidelines for the care and use of laboratory animals, and approved by the National Animal Experiment Board, Finland. Male CD (Charles River Laboratories, Germany) at weight range of 200-250 g (165-200 g upon arrival) were used for the experiments. Animals were housed at a standard temperature (22±1° C.) and in a light-controlled environment (lights on from 7 am to 8 pm) with ad libitum access to food and water.
Locomotor activity of the rats was tested in open field arena. The open field test was performed during the rat light cycle and under a normal lighting evenly distributed to the test chambers. The paths of the rats were recorded by activity monitor (Med. Associates Inc.).
Dosing the vehicle, vehicle-amphetamine, (+)-α-DHTBZ or risperidone was done prior to LMA test. The rats were placed in the centre of the arena, and the path was recorded for 60 minutes.
Animals were grouped as follows: • Group 1: 10 rats treated with Vehicle • Group 2: 10 rats treated with (+)-α-DHTBZ 2.5 mg/kg • Group 3: 10 rats treated with (+)-α-DHTBZ 5 mg/kg • Group 4: 10 rats treated with risperidone 1 mg/kg

[2] = pharmacokinetics after oral administration to male Beagle dogs; format: in vivo, Beagle dog
Protocol: Doses were administered orally, via gavage, at a dose volume of 2.00 mL/kg yielding the target dose level of 1.50 mg/kg. Following dosing, 10 mL of tap water was flushed down the gavage to ensure the entire dose was dispensed. Following dosing over four sessions each with one of the test materials, serial whole blood samples (circa. 1.3 mL) were collected from a jugular vein then placed into K2 EDTA treated tubes pre-dose and then 0.25, 0.50, 1, 2, 3, 4, 6, 12 and 24 hours post dose. Blood samples were placed immediately on a cool-block before being centrifuged within 15 minutes at 3,000×g, 10 minutes, 4° C. and resultant plasma drawn off. […] Doses were administered orally, via gavage, at a dose volume of 2.00 mL/kg yielding the target dose level of 1.50 mg/kg. Following dosing, 10 mL of tap water was flushed down the gavage to ensure the entire dose was dispensed. Following dosing over four sessions each with one of the test materials, serial whole blood samples (circa. 1.3 mL) were collected from a jugular vein then placed into K2 EDTA treated tubes pre-dose and then 0.25, 0.50, 1, 2, 3, 4, 6, 12 and 24 hours post dose. Blood samples were placed immediately on a cool-block before being centrifuged within 15 minutes at 3,000×g, 10 minutes, 4° C. and resultant plasma drawn off.

[3] = plasma concentrations after oral dosing to human volunteers; format: in vivo
Protocol: (+)-α-Dihydrotetrabenazine in amounts was administered by oral dosing to five human volunteers. In four of the volunteers, blood sample were taken at 30, 60, 120 and 180 minutes after drug administration. Blood samples were not taken from the fifth volunteer. At 60 minutes after drug administration, PET scans were initiated and these were stopped at 120 minutes after drug administration. The experiment was carried out at dosages of 7.5 mg, 15 mg and 22.5 mg.

VMAT2 = target: T1, VMAT2 (Homo sapiens, UniProt Q05940); assay: % VMAT2 blocking by PET scan in human volunteers; format: in vivo
T1 construct: from tissue; host or cells: living human volunteers (in vivo PET scan)
Source text: Complete blocking of the VMAT2 proteins is considered undesirable as this can lead to unwanted side effects, such as Parkinsonism. […] The levels of VMAT2 blocking can be determined by competitive binding studies using Positron Emission Tomography (PET). By co-administering a radioactive ligand with the compound of interest at various concentrations, the proportion of binding sites occupied can be determined (see for example, Matthews et al., “Positron emission tomography molecular imaging for drug development”, Br. J. Clin. Pharmacol., 73:2, 175-186).
In four of the volunteers, blood sample were taken at 30, 60, 120 and 180 minutes after drug administration. Blood samples were not taken from the fifth volunteer. At 60 minutes after drug administration, PET scans were initiated and these were stopped at 120 minutes after drug administration.
The experiment was carried out at dosages of 7.5 mg, 15 mg and 22.5 mg.

[4] = equilibrium aqueous solubility by HPLC; format: physicochemical; details: thermodynamic from solid; water, measured by HPLC; read-out: equilibrium solubility in water
Protocol: The aqueous solubilities of salts were measured by an equilibrium method in which an amount of the salt was weighed into a 2 ml vial equipped with a magnetic stirrer bar and water added. In cases where complete dissolution was observed, more material was added until the sample was exhausted. The slurry was then stirred for seven days before isolating the solids by centrifuge-filtration. The solids were analysed by XRPD and the filtrates were analysed by HPLC to determine the amount of (+)-alpha-dihydrotetrabenazine salt in solution. The solubilities were calculated against a calibration curve established for a (+)-alpha-dihydrotetrabenazine sample of known concentration.

[5] = male Beagle dogs, oral 1.50 mg/kg (freebase equivalent)

T1 sequence (Q05940 whole entry): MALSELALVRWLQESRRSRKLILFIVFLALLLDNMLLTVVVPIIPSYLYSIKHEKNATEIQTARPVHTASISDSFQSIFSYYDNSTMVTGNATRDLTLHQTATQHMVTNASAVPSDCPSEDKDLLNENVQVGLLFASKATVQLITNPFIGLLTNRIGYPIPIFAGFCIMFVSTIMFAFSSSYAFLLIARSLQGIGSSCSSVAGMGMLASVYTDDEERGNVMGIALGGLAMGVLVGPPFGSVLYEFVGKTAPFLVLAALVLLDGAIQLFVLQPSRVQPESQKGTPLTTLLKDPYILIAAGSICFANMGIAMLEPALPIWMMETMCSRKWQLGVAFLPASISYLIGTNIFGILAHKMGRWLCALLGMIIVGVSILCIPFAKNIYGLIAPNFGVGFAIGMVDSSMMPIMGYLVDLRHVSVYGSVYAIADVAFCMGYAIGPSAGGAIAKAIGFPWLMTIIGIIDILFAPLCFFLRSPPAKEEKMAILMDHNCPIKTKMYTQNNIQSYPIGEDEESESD

Structure (SMILES): COc1cc2c(cc1OC)[C@H]1C[C@@H](O)[C@H](CC(C)C)CN1CC2 [(+)-α-dihydrotetrabenazine, (2R,3R,11bR)-3-isobutyl-9,10-dimethoxy-1,3,4,6,7,11b-hexahydro-2H-pyrido[2,1,a]isoquinolin-2-01]
- stereotypic behaviour versus vehicle [1]: comparable
- total movement versus vehicle [1]: comparable
- Cmax ([2]; dog, plasma, 1.5 mg/kg, male Beagle dogs, oral 1.50 mg/kg (freebase equivalent)): 58.7 ng/mL
- mean exposure [2, 5]: 64.26 ng·mL·h
- time post dose at which Cmax was observed [2, 5]: 0.25 h
- concentration at 6 h ([2]; male, Beagle (HsdRcc:DOBE), dog, plasma, po, 1.5 mg/kg, Plasma concentration of (+)-α-dihydrotetrabenazine, Male 2, oral 1.50 mg/kg (freebase equivalent), 6 h, BLQ = <0.10 ng/mL): 0.113 ng/mL
- concentration at 1 h ([3]; human, plasma, subject 1 (112 kg), 7.5 mg oral): 0.94 ng/mL
- concentration at 1 h ([3]; human, plasma, subject 1 (112 kg), 22.5 mg oral): 18 ng/mL
- concentration at 2 h ([3]; human, plasma, subject 2 (76 kg), 7.5 mg oral): 14 ng/mL
- concentration at 0.5 h ([3]; human, plasma, subject 3 (129 kg), 15 mg oral, 0.5 h): 1.2 ng/mL
- concentration at 2 h ([3]; human, plasma, subject 3 (129 kg), 15 mg oral): 12 ng/mL
- plasma concentration of (+)-α-dihydrotetrabenazine ([3]; subject 1 (112 kg), 7.5 mg oral, 0.5 h, BLQ = below level of quantitation): BLQ
- % VMAT2 blocking (VMAT2; heavier individuals, doses as low as 7.5 mg): at least 50%
- % VMAT2 blocking (VMAT2; subject 1 (112 kg), 7.5 mg oral, PET 60-120 minutes after administration): 54%
- % VMAT2 blocking (VMAT2; subject 1 (112 kg), 15 mg oral, PET 60-120 minutes after administration): 73%
- % VMAT2 blocking (VMAT2; subject 1 (112 kg), 22.5 mg oral, PET 60-120 minutes after administration): 75%
- % VMAT2 blocking (VMAT2; subject 2 (76 kg), 7.5 mg oral, PET 60-120 minutes after administration): 73%
- % VMAT2 blocking (VMAT2; subject 2 (76 kg), 15 mg oral, PET 60-120 minutes after administration): 83%
- % VMAT2 blocking (VMAT2; subject 2 (76 kg), 22.5 mg oral, PET 60-120 minutes after administration): 82%
- % VMAT2 blocking (VMAT2; subject 3 (129 kg), 7.5 mg oral, PET 60-120 minutes after administration): 62%
- % VMAT2 blocking (VMAT2; subject 3 (129 kg), 15 mg oral, PET 60-120 minutes after administration): 69%
- % VMAT2 blocking (VMAT2; subject 3 (129 kg), 22.5 mg oral, PET 60-120 minutes after administration): 74%
- % VMAT2 blocking (VMAT2; subject 4 (59 kg), 7.5 mg oral, PET 60-120 minutes after administration): 84%
- % VMAT2 blocking (VMAT2; subject 4 (59 kg), 15 mg oral, PET 60-120 minutes after administration): 89%
- % VMAT2 blocking (VMAT2; subject 5 (91 kg), 7.5 mg oral, PET 60-120 minutes after administration): 73%
- % VMAT2 blocking (VMAT2; subject 5 (91 kg), 15 mg oral, PET 60-120 minutes after administration): 79%
- % VMAT2 blocking (VMAT2; subject 5 (91 kg), 22.5 mg oral, PET 60-120 minutes after administration): 82%
- solubility thermodynamic at 7 days [4]: 127 µg/mL (≈ 398 µM)
